The results in this text go back to ChEMBL document CHEMBL1128065, “Stereochemical preferences and requirement for the 3-hydroxyl group in novel anticonvulsant 4-fluorobenzoylamino benzopyrans” (1995).

Assay [1] is filed under the species Mus musculus. Nature of the assay: Effect on percent increase in seizure threshold was evaluated by maximal electroshock threshold (MEST) test in mouse. The assay is classed as functional. A general note: The maximal electroshock test induces tonic seizures with an electrical stimulus.
Assay [2] has as its system Rattus norvegicus. Description: Tested for blood pressure fall on i.v. administration at a dose of 10 mg/kg infused over 30 minutes in pentobarbitone-anaesthetized hooded lister rats. It counts as functional. The settings on record: route intravenous.

`CC1(C)Oc2ccc(C#N)cc2[C@@H](NC(=O)c2ccc(F)cc2)[C@@H]1O`: the Increase in assay [1] turned out to be 17%.
With `CC1(C)Oc2ccc(C#N)cc2[C@H](NC(=O)c2ccc(F)cc2)[C@H]1O`, the Increase in assay [1] came to 41%.
For `CC1(C)CC(NC(=O)c2ccc(F)cc2)c2cc(C#N)ccc2O1` (configuration not stated), in assay [1], the Increase was 5%.
Compound `CC1(C)Oc2ccc(C#N)cc2[C@@H](NC(=O)c2ccc(F)cc2)[C@H]1O` gave an Increase in assay [1] of 0%. This compound returned a BP in assay [2] of 36%.
As for `CC1(C)Oc2ccc(C#N)cc2[C@H](NC(=O)c2ccc(F)cc2)[C@@H]1O`, in assay [1], the Increase was found to be 28%. Also, the BP in assay [2] is on record as 5%.
